Results on 28 molecules are retold here after US10010536B2, “Method of modulating stress-activated protein kinase system” (InterMune, Inc., priority 2005, dated 2018).

Data set [1] has as its system TNFα release from THP-1 cells stimulated with lipopolysaccharide (LPS). The data set can be described thus: Inhibition of TNFα release from THP-1 cells stimulated with lipopolysaccharide (LPS). Details: key to TNF EC50: A: ≤2,000; B: >2,000; C: Inconclusive (e.g., no data or no activity observed). The following applies: for EC50: Homo sapiens, read-out: TNF EC50. It is filed as cell-based. The procedure: Compounds are screened for the ability to inhibit TNFα release from THP-1 cells stimulated with lipopolysaccharide (LPS) in vitro. The ability of compounds to inhibit TNFα release in this in vitro assay is correlated with the inhibition of p38 activity and TNFα, and is therefore an indicator of potential in vivo therapeutic activity (Lee J. C. et al. 1993 Ann. N.Y. Acad. Sci. 696:149-170; and 1994 Nature 372:739-746).
THP-I cells from ATCC (TIB202) are maintained at 37° C., 5% CO2 in RPMI 1640 media (MediaTech, Herndon, Va.) containing 4.5 g/L glucose, supplemented with 10% fetal bovine serum, 1% penicillin/streptomycin and 50 μM β-mercaptoethanol.
Test compounds are initially dissolved in RPMI media with 1% DMSO (v/v). Compounds are then serially diluted in RPMI media for all subsequent dilutions. The assay is performed under sterile conditions. THP-1 cells at a culture density of 6-8×10^5 cells/ml are collected and resuspended in the RPMI media at 10^6 cells/ml. 100 μl of resuspended cells are added to each well, which contain 100 μl of a test compound. Test compounds are prepared at twice the final concentration. Final DMSO concentration is no more than 0.5% (v/v). Cells are preincubated with compound for 60 minutes at 37° C., 5% CO2 prior to stimulation with lipopolysaccharide (LPS) (Sigma L-2880, 4 mg/ml stock in PBS). The final LPS concentration in each well is […] for TNFα and IL-1β release, respectively. Unstimulated control cell suspensions receive PBS vehicle only. Cell mixtures are incubated for 18 or 48 hours for TNFα and IL-1β release, respectively. 150 μl of supernatants are taken and transferred to a fresh plate and stored at −20° C. until farther analysis. TNFα and IL-1β levels are measured using ELISA kits. A Luminescence is used as the plate reader. Analysis is performed by non-linear regression to generate a dose response curve.

For another data set, the system named is THP-1 cells. Kind of data set: Compound toxicity testing in a cell based assay (LDH release, ATP and/or MTT assay). The following applies: given as concentration. The method, then:
The release of LDH as result of a disrupted cell membrane is applied as a measure of cell toxicity. […] THP-1 cells are used for determination of cell toxicity for consistency with the induced TNFα expression in the previous experiment. […] The compounds are added at different concentrations in triplicate. The appropriate solvent control is used in each assay. After compound addition the cells are cultured 18 hours under regular tissue culture conditions. After this incubation period, the positive control is initiated by adding Triton-X-100 (2% v/v) to untreated cells and incubated for an additional 10 minutes for complete cell lysis. Subsequently the cells are sedimented by centrifugation and a fraction of the supernatant removed and analyzed for LDH enzyme activity according to the manufacturer's instructions. The data is typically reported as % cell toxicity normalized to the Triton-X-100 lysed cells as 100% cell toxicity.
Toxicity data are also obtained using a commercially available ATP assay (Molecular Probes' ATP Determination Kit A22066, available from Invitrogen) and/or using a MTT assay. Both the ATP and the MTT assays measure metabolic competence of the cell. The MTT assay measures the ability of the cell to reduce a marker substrate, which is related to metabolic competence (i.e. viability). The ATP assay measures the cellular ATP concentration in the presence and absence of compound. Toxic compounds lead to reduced metabolic activity which leads to a reduction in ATP concentration.
(Release of lactate dehydrogenase indicates damage to the cell membrane.)

Another data set concerns HFL-1 Cells. Kind of data set: Effect of compounds on TGF-β-induced collagen production in HFL-1 cells (Sircol collagen assay). The following applies: Homo sapiens, HFL1, 72 h, compound 1 mM, TGF-β1 10 ng/mL, three days, read-out: % Inhibition of TGF-β Stimulated Collagen Synthesis. It is filed as cell-based. The method, then: HFL-1 Cells (ATCC, Rockville, Md.) were grown under regular tissue culture conditions in complete media containing 10% fetal bovine serum (FBS; Mediatech, Inc., Herndon, Va.). Cells in early passage were plated in 6 well plates. When the cells reached confluence, the media was removed, cells washed with PBS, and the cells were kept overnight in complete media containing 0.1% FBS. The media was then replaced with fresh media plus 0.1% FCS, 10 μM L-Proline (EMD Chemicals, Gibbstown, N.J.), 20 μg/mL ascorbic acid (EMD Chemicals, Gibbstown, N.J.). Compounds were added to triplicate wells to a final concentration of 1 mM from 100× stock solutions in DMSO. One hour after the addition of compound, the cells were treated with TGF-β1 (Sigma-Aldrich, St. Louis, Mo.) to a final concentration of 10 ng/mL (25 ng total). Three days after addition of TGF-β, the media was removed, cells were washed with PBS and then lysed. The total collagen content of lysed cells was assessed with a dye-based collagen assay (Sircol Collagen Assay, Newtownabbey, Northern Ireland) and a μQuant plate-based spectrophotometer (BioTek Insturments, Inc., Winooski, Vt.) with appropriate standard curves. The dynamic range of the assay is defined by cells that were mock treated (1% DMSO without compound) in the presence and absence of TGF-β.

A short description of data set [2]: Pharmacokinetic properties in dual canulated Sprague Dawley rats. It is filed as in vivo. More on the design: Clobs: unit not given here. As to conditions: rat; for AUC(0-t) / MRT inf / half-life: male, Sprague Dawley, plasma. The method, then: The pharmacokinetic (PK) properties of pirfenidone, pirfenidone analogs and derivatives were assessed in dual canulated (right jugular/left carotid) Sprague Dawley rats (Charles River Laboratories, Inc., Wilmington, Mass.). Male rats weighing approximately 275-300 g were administered an intravenous (5 mg/Kg) or oral (50 mg/Kg via gavage) dose of compound in an appropriate formulation. Plasma samples were collected via intra-arterial canula at desired times in the 24 hours after dosing using EDTA as an anticoagulant. Three animals were used for each compound. All experiments were conducted by trained personnel in accordance with guidelines of the appropriate Institutional Animal Care and Use Committees (IACUC). Compound concentrations were assessed by LC-MS using a MDS SCIEX API 3000 mass spectrometer (Applied Biosystems, Foster City, Calif.) coupled to a Shimadzu VP HPLC (Shimadzu Corp., Kyoto, Japan) outfitted with a Duragel G C18 guard cartridge (Peeke Scientific, Redwood City, Calif.). Calibration samples were prepared by mixing known amounts of pirfenidone, or a pirfenidone analog or derivative, with rat plasma. A standard curve was created by serial dilution of the calibration sample in the same matrix. Both standard and analytical samples were prepared for injection to the HPLC by mixing an aliquot of plasma sample with 3 volumes of ice cold acetonitrile containing internal standard. Samples were then centrifuged. An aliquot of the resulting supernatant was then mixed with five volumes of 0.2% formic acid in water, injected to the HPLC, and resolved in a methanol gradient (containing 0.18-0.2% formic acid). The integrated analyte signal was corrected for that of the internal standard and compared to the appropriate standard curve in order to define the analyte concentration. The pharmacokinetic parameters shown in Table 4 were derived using the WinNonlin Software package (Pharsight Corp, Mountain View, Calif.).

Each structure is given as a SMILES string.

By EC50 is commonly meant the concentration at which the effect is half-maximal. As for `O=c1ccc(CO)cn1-c1ccccc1` [Compound 1], in data set [1], the EC50 is more than 2 mM.
Turning to `O=C(O)c1ccc(=O)n(-c2ccccc2)c1` [Compound 2], the “TNF EC50” value in data set [1] was “C”.
Take `Cc1cc(O)c(=O)n(-c2ccccc2)c1` [Compound 4]: the EC50 in data set [1] is not above 2 mM. This molecule displayed a Toxicity in the data set with THP-1 cells not below 1 mM.
For the molecule `Cc1ccc(=O)n(-c2ccc(O)cc2)c1` [Compound 5], the half-maximal effective concentration (EC50) in data set [1] was not above 2 mM. The same molecule displayed a Toxicity with THP-1 cells not below 1 mM.
As to `COCc1ccc(=O)n(-c2ccccc2)c1` [Compound 6], the EC50 in data set [1] is not above 2 mM. The Toxicity in the data set with THP-1 cells is recorded as not below 1 mM.
Turning to `O=c1ccccn1-c1ccccc1` [Compound 7], the EC50 in data set [1] was more than 2 mM.
As a reminder, the inhibition is the share of the control response that was lost under treatment. For orientation: AUC(0-t) means exposure summed from dosing to a finite time, without extrapolation to infinity. Usually MRT inf stands for a mean duration of stay, worked out from the concentration-time curve. What is called half-life is how long it takes for the measured level to halve. Consider `O=c1ccc(C(F)(F)F)cn1-c1ccccc1` [Compound 8], for which the EC50 in data set [1] was more than 2 mM. Further, the inhibition at 1000 µM with HFL-1 Cells came to 48%. Also, in data set [2] (IV, 5 mg/kg), the area under the curve AUC(0-t) came to 30200 ng·h/mL, the MRT inf is 20.3 h, the half-life is 834 min and the Clobs is 0.117. In data set [2] (Oral, 50 mg/kg), this molecule displayed an AUC(0-t) of 122000 ng·h/mL and an E of 40.5%.
As for `O=c1ccccn1-c1ccc(O)cc1` [Compound 9], in data set [1], the “TNF EC50” value is listed as “C”.
As for `O=c1ccc(C(F)(F)F)cn1-c1ccc(O)cc1` [Compound 10, 1-(4-hydroxyphenyl)-5-(trifloromethyl)-2-pyridone], in data set [1], the EC50 was not above 2 mM.
For the molecule `O=c1ccccn1-c1ccc(F)cc1` [Compound 11], in data set [1], the EC50 is more than 2 mM.
As for `O=c1ccc(C(F)(F)F)cn1-c1ccc(F)cc1` [Compound 12], the “TNF EC50” value in data set [1] is given as “C”.
Turning to `Cc1ccc(=O)n(-c2ccccc2)c1` [Compound 13, 5-methyl-1-phenyl-2-(1H)-pyridone, reference compound], the EC50 in data set [1] was not above 2 mM. Moreover, the Toxicity with THP-1 cells was not below 1 mM.
As to `Cc1ccc(=O)n(-c2ccc(F)cc2)c1` [Compound 14], the EC50 in data set [1] was more than 2 mM. Further, the inhibition at 1000 µM in the data set with HFL-1 Cells came to 23%.
`COc1ccc(-n2cc(C(F)(F)F)ccc2=O)cc1` [Compound 15]: in data set [1], the “TNF EC50” value is reported as “C”. For the same molecule, the inhibition at 1000 µM in the data set with HFL-1 Cells came to 49%.
As to `CC(=O)c1ccc(=O)n(-c2ccccc2)c1` [Compound 16, 1-phenyl-5-acetyl-2-pyridone], the “TNF EC50” value in data set [1] is recorded as “C”.
The same measure, in the same setting: to `O=c1ccc(-c2ccccc2)cn1-c1ccccc1` [Compound 17] belongs “C”; to `Cc1ccc(=S)n(-c2ccccc2)c1` [Compound 18, 1-phenyl-5-methyl-2-pyridinethione], “C”.
With `O=c1ccc(C(F)F)cn1-c1ccccc1` [Compound 19], in data set [2] (IV, 5 mg/kg), the AUC(0-t) was 35000 ng·h/mL, the MRT inf came out at 6.26 h, the half-life was 178 min and the Clobs stood at 0.142. Besides, in data set [2] (Oral, 50 mg/kg), the area under the curve AUC(0-t) was determined as 192000 ng·h/mL and the E was found to be 54.8%.
Regarding `COC(=O)c1ccc(=O)n(-c2ccccc2)c1` [Compound 24], the “TNF EC50” value in data set [1] is on record as “C”.
In the case of `Cc1ccc(=O)n(-c2cc[n+](C)cc2)c1` [Compound 25], in data set [1], the EC50 was more than 2 mM.
As for `O=c1ccc(Br)cn1-c1ccccc1` [Compound 26], the half-maximal effective concentration (EC50) in data set [1] is not above 2 mM. Moreover, the inhibition at 1000 µM in the data set with HFL-1 Cells was 58%. In data set [2] (IV, 5 mg/kg), the AUC(0-t) worked out at 10300 ng·h/mL, the MRT inf turned out to be 2.4 h, the half-life was 97.2 min and the Clobs is reported as 0.691. For the same molecule, in data set [2] (Oral, 50 mg/kg), the exposure AUC(0-t) was found to be 65800 ng·h/mL and the E is listed as 63.9%.
As for `COc1ccc(-n2cc(Br)ccc2=O)cc1` [Compound 27], the EC50 in data set [1] is not above 2 mM.
For `O=c1ccc(CF)cn1-c1ccc(O)cc1` [Compound 28], the “TNF EC50” value in data set [1] is reported as “C”.
Regarding `O=c1ccc(C(F)F)cn1-c1ccc(O)cc1` [Compound 29], the “TNF EC50” value in data set [1] was “C”.
Turning to `O=c1ccc(Br)cn1-c1ccc(O)cc1` [Compound 30], in data set [1], the EC50 is not above 2 mM. Also, in the data set on HFL-1 Cells, the inhibition at 1000 µM was 69%.
`COc1ccc(-n2cc(CF)ccc2=O)cc1` [Compound 31]: the EC50 in data set [1] was not above 2 mM.
For the molecule `COc1ccc(-n2cc(C(F)F)ccc2=O)cc1` [Compound 32], the EC50 in data set [1] was not above 2 mM.
As to `O=c1ccc2cc(Br)ccc2n1-c1ccccc1` [Compound 33], in data set [1], the “TNF EC50” value is “C”.
